The target in series [1] is T1, human Y5 receptor (Homo sapiens, UniProt Q15761).
T1 construct: expressed in transfected cells; host or cells: COS-7
The experiment in a line: Human Y5 receptor potency assay (inositol phosphate turnover). It counts as cell-based. How it is done: (§1) Potency of the test compounds on the human Y2 receptor is determined by performing dose-response experiments in COS-7 cells transiently transfected with the human Y2 receptor as well as a promiscuous G protein, Gqi5 which ensures that the Y2 receptor couples through a Gq pathway leading to an increase in inositol phosphate turnover.
(§2) Cells are washed twice in buffer, 20 mM HEPES, pH 7.4, supplemented with 140 mM NaCl, 5 mM KCl, 1 mM MgSO4, 1 mM CaCl2, 10 mM glucose, 0.05% (w/v) bovine serum; and are incubated in 0.5 ml buffer supplemented with 10 mM LiCl at 37 C for 30 min. After stimulation with various concentrations of peptide for 45 min at 37 C, cells are extracted with 10% ice-cold perchloric acid followed by incubation on ice for 30 min. The resulting supernatants are neutralized with KOH in HEPES buffer, and the generated [3H]-inositol phosphate are purified on Bio-Rad AG 1-X8 anion-exchange resin and counted in a beta counter. Determinations are made in duplicates. EC50 values were calculated using a standard pharmacological data handling software, Prism 3.0 (graphPad Sofware, San Diego, USA).
Protocol as for the Y2 potency assay, except that human Y5-transformed COS-7 cells are used

In series [2] the target is T2, human Y1 receptor (Homo sapiens, UniProt P25929).
T2 construct: expressed in transfected cells; host or cells: COS-7
T2 sequence (P25929 1-384): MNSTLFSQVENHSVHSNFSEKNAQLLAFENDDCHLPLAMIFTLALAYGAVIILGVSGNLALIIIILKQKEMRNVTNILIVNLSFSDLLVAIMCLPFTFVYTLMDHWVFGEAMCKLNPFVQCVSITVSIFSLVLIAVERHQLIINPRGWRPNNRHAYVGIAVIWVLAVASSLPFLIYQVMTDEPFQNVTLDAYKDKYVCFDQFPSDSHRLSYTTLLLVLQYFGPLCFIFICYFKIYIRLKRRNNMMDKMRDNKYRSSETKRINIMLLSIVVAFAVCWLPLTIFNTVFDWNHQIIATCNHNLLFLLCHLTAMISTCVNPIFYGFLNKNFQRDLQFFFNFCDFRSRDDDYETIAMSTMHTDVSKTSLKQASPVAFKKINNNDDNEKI
The experiment in a line: Human Y1 receptor affinity assay (competition binding). How it is done: (§3) Transfected COS-7 cells are transferred to culture plates one day after transfection at a density of 40×10^3 cells per well aiming at 5-8% binding of the radioactive ligand. […] Determinations are made in duplicate. […] EC50 values were calculated using a standard pharmacological data handling software, Prism 3.0 (graphPad Sofware, San Diego, USA).

Series [3] addresses T3, human Y2 receptor (Homo sapiens, UniProt P49146).
T3 construct: expressed in transfected cells; host or cells: COS-7
T3 sequence (P49146 1-381): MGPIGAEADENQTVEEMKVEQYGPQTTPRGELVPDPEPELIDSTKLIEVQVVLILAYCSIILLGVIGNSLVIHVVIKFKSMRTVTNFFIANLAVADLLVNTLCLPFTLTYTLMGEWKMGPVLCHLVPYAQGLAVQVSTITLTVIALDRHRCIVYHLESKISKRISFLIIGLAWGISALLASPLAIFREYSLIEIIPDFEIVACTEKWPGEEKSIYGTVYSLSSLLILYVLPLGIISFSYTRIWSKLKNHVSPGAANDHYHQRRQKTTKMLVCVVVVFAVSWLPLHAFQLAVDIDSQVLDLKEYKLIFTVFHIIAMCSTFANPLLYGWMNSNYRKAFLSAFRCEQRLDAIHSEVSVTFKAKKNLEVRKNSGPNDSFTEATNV
The experiment in a line: Human Y2 receptor potency assay (inositol phosphate turnover). Particulars: Y2 EC50, COS-7 cells with human Y2 and Gqi5, inositol phosphate turnover; Table 2. It counts as cell-based. As for the experimental part: as §1, §2

The target of series [4] is T4, human Y4 receptor (Homo sapiens, UniProt P50391).
T4 construct: expressed in transfected cells; host or cells: COS-7
T4 sequence (P50391 whole entry): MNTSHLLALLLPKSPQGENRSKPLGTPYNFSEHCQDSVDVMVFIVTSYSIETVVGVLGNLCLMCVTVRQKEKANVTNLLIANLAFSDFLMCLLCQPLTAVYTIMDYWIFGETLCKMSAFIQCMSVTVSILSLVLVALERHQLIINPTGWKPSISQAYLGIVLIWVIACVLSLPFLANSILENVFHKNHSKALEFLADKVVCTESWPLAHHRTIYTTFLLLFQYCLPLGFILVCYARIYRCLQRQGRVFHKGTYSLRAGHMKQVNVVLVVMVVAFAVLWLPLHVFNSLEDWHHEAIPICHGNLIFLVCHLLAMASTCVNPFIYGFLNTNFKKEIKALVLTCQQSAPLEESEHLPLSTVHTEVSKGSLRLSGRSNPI
Description: Human Y4 receptor affinity assay (competition binding). As for the experimental part: as §3

The target of series [5] is T3, human Y2 receptor. Description: Human Y2 receptor affinity assay (competition binding). How it is done:
as §3

Series [6] concerns the target T2, human Y1 receptor. The experiment in a line: Human Y1 receptor potency assay (inositol phosphate turnover). Format: cell-based. How it is done: as §1, §2
Protocol as for the Y2 potency assay, except that human Y1-transformed COS-7 cells are used.

For series [7], the target named is T1, human Y5 receptor. The experiment in a line: Human Y5 receptor affinity assay (competition binding). As for the experimental part:
as §3

The target in series [8] is T4, human Y4 receptor. Description: Human Y4 receptor potency assay (inositol phosphate turnover). Format: cell-based. As for the experimental part: as §1, §2
Protocol as for the Y2 potency assay, except that human Y4-transformed COS-7 cells are used.

The subject of series [9] is rats. Particulars: rat; cited from earlier work.

Consider four compounds from patent US20090186811A1, “Y2 Selective Receptor Agonists for Therapeutic Interventions” (priority 2004, published 2009).

Broadly, the EC50 is the concentration at which the effect is half-maximal. High values mean lower potency in that assay, low ones higher potency in that assay. The term IC50 denotes the point on the concentration scale where inhibition reaches its midpoint. Read a low IC50 as greater potency in that assay.

Positions of bridges follow the written chain, without caps; N, C: chain ends. Non-standard residues stand in square brackets, D forms with d. Residues, ends and D or L forms follow the SMILES beside them. Aoc = NCCCCCCCC(=O)O Bounds are passed on as bounds.

T1 sequence (Q15761 whole entry): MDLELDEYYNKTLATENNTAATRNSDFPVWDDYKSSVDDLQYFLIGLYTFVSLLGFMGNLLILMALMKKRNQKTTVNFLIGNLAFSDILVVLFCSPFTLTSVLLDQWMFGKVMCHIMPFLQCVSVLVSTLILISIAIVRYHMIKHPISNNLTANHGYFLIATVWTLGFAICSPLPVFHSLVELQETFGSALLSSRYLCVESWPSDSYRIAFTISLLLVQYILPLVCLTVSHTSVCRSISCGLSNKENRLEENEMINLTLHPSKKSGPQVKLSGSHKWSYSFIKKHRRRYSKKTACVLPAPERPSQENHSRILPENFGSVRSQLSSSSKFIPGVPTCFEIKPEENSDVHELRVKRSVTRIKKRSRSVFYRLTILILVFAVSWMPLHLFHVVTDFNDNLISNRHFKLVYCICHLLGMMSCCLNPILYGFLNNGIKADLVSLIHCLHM

As to `CC(C)C[C@H](NC(=O)[C@H](Cc1ccc(O)cc1)NC(=O)[C@H](Cc1c[nH]cn1)NC(=O)[C@H](CCCNC(=N)N)NC(=O)[C@H](CCCCN)NC(=O)[C@H](CCCCN)NC(=O)[C@H](CCCCN)NC(=O)[C@H](CCCCN)NC(=O)[C@H](CCCCN)NC(=O)[C@@H](N)CCCCN)C(=O)N[C@@H](CC(N)=O)C(=O)N[C@@H](CC(C)C)C(=O)N[C@H](C(=O)N[C@H](C(=O)N[C@@H](CCCNC(=N)N)C(=O)N[C@@H](CCC(N)=O)C(=O)N[C@@H](CCCNC(=N)N)C(=O)N[C@@H](Cc1ccc(O)cc1)C(N)=O)[C@@H](C)O)C(C)C` [SEQ ID NO: 11, Lys-Lys-Lys-Lys-Lys-Lys-PYY25-36], in series [1], the EC50 is > 1000 nM.
For `CC[C@H](C)[C@H](NC(=O)[C@H](Cc1ccc(O)cc1)NC(=O)[C@H](CCCNC(=N)N)NC(=O)[C@H](CCCNC(=N)N)NC(=O)[C@H](CC(C)C)NC(=O)[C@H](CC(=O)O)NC(=O)[C@H](C)NC(=O)[C@H](C)NC(=O)[C@H](Cc1ccc(O)cc1)NC(=O)[C@H](CCC(N)=O)NC(=O)[C@H](C)NC(=O)[C@H](CCSC)NC(=O)[C@H](CCC(N)=O)NC(=O)[C@H](CCC(=O)O)NC(=O)[C@@H]1CCCN1C(=O)[C@@H](NC(=O)[C@H](C)NC(=O)[C@H](CC(N)=O)NC(=O)[C@H](CC(=O)O)NC(=O)CNC(=O)[C@@H]1CCCN1C(=O)[C@H](Cc1ccc(O)cc1)NC(=O)[C@@H](NC(=O)[C@@H]1CCCN1C(=O)[C@H](CCCCN)NC(=O)[C@H](CC(C)C)NC(=O)[C@@H]1CCCN1C(=O)[C@H](C)N)C(C)C)[C@@H](C)O)C(=O)N[C@@H](CC(N)=O)C(=O)N[C@@H](CCSC)C(=O)N[C@@H](CC(C)C)C(=O)N[C@H](C(=O)N[C@@H](CCCNC(=N)N)C(=O)N[C@@H](CCC(N)=O)C(=O)N[C@@H](CCCNC(=N)N)C(=O)N[C@@H](Cc1ccc(O)cc1)C(N)=O)[C@@H](C)O` [SEQ ID NO: 12, [Lys4,Gln34]PP], the IC50 in [2] was > 1000 nM.
On to `CC[C@H](C)[C@@H]1NC(=O)[C@@H](NC(=O)[C@@H](N)Cc2ccc(O)cc2)CSSC[C@H](C(=O)N[C@@H](CC(C)C)C(=O)N[C@@H](CC(N)=O)C(=O)N[C@@H](CC(C)C)C(=O)N[C@H](C(=O)N[C@H](C(=O)N[C@@H](CCCNC(=N)N)C(=O)N[C@@H](CCC(N)=O)C(=O)N[C@@H](CCCNC(=N)N)C(=O)N[C@@H](Cc2ccc(O)cc2)C(N)=O)[C@@H](C)O)C(C)C)NC(=O)[C@H](Cc2c[nH]cn2)NC(=O)[C@H](CCCNC(=N)N)NC(=O)CCCCCCCNC(=O)[C@H](CCCCN)NC1=O` [SEQ ID NO: 16, [Cys2,Aoc5-24,D-Cys27]PYY] (H-YCIK[Aoc]RH[dC]LNLVTRQRY-NH2; disulfide 2-8; N-terminus assumed), for which the half-maximal effective concentration (EC50) in series [3] was 3.7 nM; in [1], > 1000 nM; in [6], > 1000 nM; in series [8] it was > 1000 nM. Besides, in [1] (at a concentration of 1 μM), the “stimulation of the Y5 receptor” value was “stimulates neither”. For the same compound, the IC50 in [2] is > 1000 nM; in series [4], 267 nM; in [5], 0.87 nM; in [7], > 1000 nM. Moreover, in series [6] (at 1 μM), the “stimulation of the Y1 receptor” value is “does not even at 1 μM stimulate”. In addition, in series [8] (at a concentration of 1 μM), the “stimulation of the Y4 receptor” value is “stimulates neither”.
For [Ahx5-24, gamma-Glu2-eps-Lys30]NPY, in series [9], the “blood pressure increase in vivo” value is “not to induce blood pressure increases”.
